Assay results: PubChem BioAssay AID2060616 (Molecular Pharmacology Branch, DTP, NCI, 2025)
Values joined by “and” are separate entries in the source; they are usually repeats but may differ in a detail not shown here. Equal values may be shown once.

System: 377384-186-R-J1-PDC complex spheroid viability
Assay: Anticancer human tumor 377384-186-R-J1-PDC patient-derived pancreatic carcinoma cell line growth inhibition [CLK]
Conditions: for viability, T/C: stronger effect = lower value
Summary of the method: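 Multi-cell-type spheroids combined patient-derived tumor cells with HUVEC endothelial cells and human mesenchymal stem cells. Paired agents were dosed in half-log steps down from about clinical Cmax, or from 10 microM where Cmax was unknown.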

[1] = curve of first compound, second compound 0.0316 µM
[2] = curve of first compound, second compound 0.1 µM
[3] = curve of first compound, second compound 0.316 µM
[4] = curve of first compound, second compound 1 µM
[5] = curve of first compound, second compound 3.16 µM
[6] = curve of first compound, second compound 10 µM
[7] = second compound 0.0316 µM, first compound 0.0316 µM
[8] = second compound 0.0316 µM, first compound 0.1 µM
[9] = second compound 0.0316 µM, first compound 0.316 µM
[10] = second compound 0.0316 µM, first compound 1 µM
[11] = second compound 0.0316 µM, first compound 3.16 µM
[12] = second compound 0.0316 µM, first compound 10 µM
[13] = second compound 0.1 µM, first compound 0.0316 µM
[14] = second compound 0.1 µM, first compound 0.1 µM
[15] = second compound 0.1 µM, first compound 0.316 µM
[16] = second compound 0.1 µM, first compound 1 µM
[17] = second compound 0.1 µM, first compound 3.16 µM
[18] = second compound 0.1 µM, first compound 10 µM
[19] = second compound 0.316 µM, first compound 0.0316 µM
[20] = second compound 0.316 µM, first compound 0.1 µM
[21] = second compound 0.316 µM, first compound 0.316 µM
[22] = second compound 0.316 µM, first compound 1 µM
[23] = second compound 0.316 µM, first compound 3.16 µM
[24] = second compound 0.316 µM, first compound 10 µM
[25] = second compound 1 µM, first compound 0.0316 µM
[26] = second compound 1 µM, first compound 0.1 µM
[27] = second compound 1 µM, first compound 0.316 µM
[28] = second compound 1 µM, first compound 1 µM
[29] = second compound 1 µM, first compound 3.16 µM
[30] = second compound 1 µM, first compound 10 µM
[31] = second compound 3.16 µM, first compound 0.0316 µM
[32] = second compound 3.16 µM, first compound 0.1 µM
[33] = second compound 3.16 µM, first compound 0.316 µM
[34] = second compound 3.16 µM, first compound 1 µM
[35] = second compound 3.16 µM, first compound 3.16 µM
[36] = second compound 3.16 µM, first compound 10 µM
[37] = second compound 10 µM, first compound 0.0316 µM
[38] = second compound 10 µM, first compound 0.1 µM
[39] = second compound 10 µM, first compound 0.316 µM
[40] = second compound 10 µM, first compound 1 µM
[41] = second compound 10 µM, first compound 3.16 µM
[42] = second compound 10 µM, first compound 10 µM
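Note: spheroids exposed to agents for 7 days before reading.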
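Throughout, for viability, T/C: luminescence signal used as a stand-in for viable cells.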

Compound: Cn1ncnc1[C@H]1c2n[nH]c(=O)c3cc(F)cc(c23)N[C@@H]1c1ccc(F)cc1
- viability, T/C (compound 0.000316 µM): 86.8% and 87.2%
- viability, T/C (compound 0.001 µM): 73.7% and 74.4%
- viability, T/C (compound 0.00316 µM): 62.4% and 66.9%
- viability, T/C (compound 0.01 µM): 57.6% and 62.5%
- viability, T/C (compound 0.0316 µM): 53.4% and 47.6%
- viability, T/C (compound 0.1 µM): 41.8% and 43.1%
- IC50 (curve of compound): 30.7 nM and 33.4 nM

Compound: C=C(F)C(=O)N1CCN(c2nc(OCC3CCCN3C)nc3c2CCN(c2cccc4cccc(Cl)c24)C3)CC1CC#N (stereo unspecified) + CN1CCN(c2cc(C(=O)Nc3cc4cc(-c5cnn(C)c5)ccc4cn3)ccn2)CC1
- IC50 [1]: 1890 nM
- IC50 [2]: 1630 nM
- IC50 [3]: < 31.6 nM
- IC50 [4]: < 31.6 nM
- IC50 [5]: < 31.6 nM
- IC50 [6]: < 31.6 nM
- viability, T/C [7]: 96.6%
- viability, T/C [8]: 97.2%
- viability, T/C [9]: 91.7%
- viability, T/C [10]: 83.5%
- viability, T/C [11]: 23.2%
- viability, T/C [12]: 0.18%
- viability, T/C [13]: 94.1%
- viability, T/C [14]: 101%
- viability, T/C [15]: 81.4%
- viability, T/C [16]: 72.5%
- viability, T/C [17]: 22.4%
- viability, T/C [18]: 0.15%
- viability, T/C [19]: 30.5%
- viability, T/C [20]: 32.5%
- viability, T/C [21]: 30.3%
- viability, T/C [22]: 23.9%
- viability, T/C [23]: 17.9%
- viability, T/C [24]: 0.31%
- viability, T/C [25]: 1.57%
- viability, T/C [26]: 1.56%
- viability, T/C [27]: 2.02%
- viability, T/C [28]: 1.49%
- viability, T/C [29]: 1.66%
- viability, T/C [30]: 0.44%
- viability, T/C [31]: 0.52%
- viability, T/C [32]: 0.83%
- viability, T/C [33]: 0.4%
- viability, T/C [34]: 0.56%
- viability, T/C [35]: 0.32%
- viability, T/C [36]: 0.34%
- viability, T/C [37]: 0.6%
- viability, T/C [38]: 0.4%
- viability, T/C [39]: 0.42%
- viability, T/C [40]: 0.45%
- viability, T/C [41]: 0.17%
- viability, T/C [42]: 0.19%

Compound: O=C(c1cc(Cc2n[nH]c(=O)c3ccccc23)ccc1F)N1CCN(C(=O)C2CC2)CC1 + CNC(=O)c1ccc(Nc2nc(OC3CCCC3)c3c(-c4ccc5nc(C)oc5c4)c[nH]c3n2)c(OC)c1
- IC50 [1]: 6380 nM
- IC50 [2]: 991 nM
- IC50 [3]: < 31.6 nM
- IC50 [4]: < 31.6 nM
- IC50 [5]: < 31.6 nM
- IC50 [6]: < 31.6 nM
- viability, T/C [7]: 83.7%
- viability, T/C [8]: 84.7%
- viability, T/C [9]: 78.9%
- viability, T/C [10]: 75.9%
- viability, T/C [11]: 64.9%
- viability, T/C [12]: 40.3%
- viability, T/C [13]: 52.1%
- viability, T/C [14]: 50.2%
- viability, T/C [15]: 57%
- viability, T/C [16]: 49%
- viability, T/C [17]: 38.3%
- viability, T/C [18]: 29.7%
- viability, T/C [19]: 22.3%
- viability, T/C [20]: 17.4%
- viability, T/C [21]: 20.7%
- viability, T/C [22]: 17.8%
- viability, T/C [23]: 15.3%
- viability, T/C [24]: 17.5%
- viability, T/C [25]: 23.3%
- viability, T/C [26]: 18.6%
- viability, T/C [27]: 17.9%
- viability, T/C [28]: 21.3%
- viability, T/C [29]: 20%
- viability, T/C [30]: 17.4%
- viability, T/C [31]: 19.6%
- viability, T/C [32]: 21.1%
- viability, T/C [33]: 22.2%
- viability, T/C [34]: 19.4%
- viability, T/C [35]: 22%
- viability, T/C [36]: 18.4%
- viability, T/C [37]: 18.7%
- viability, T/C [38]: 19.8%
- viability, T/C [39]: 21.8%
- viability, T/C [40]: 19.8%
- viability, T/C [41]: 18.9%
- viability, T/C [42]: 15.2%
